Measurements published in PMC10976477 (RSC Advances, 2024).

Key:
human MAO-A = biological target: T1, human MAO-A (Homo sapiens, UniProt P21397); assay: MAO-A inhibition assay; assay type: biochemical
T1 sequence (P21397 1-527): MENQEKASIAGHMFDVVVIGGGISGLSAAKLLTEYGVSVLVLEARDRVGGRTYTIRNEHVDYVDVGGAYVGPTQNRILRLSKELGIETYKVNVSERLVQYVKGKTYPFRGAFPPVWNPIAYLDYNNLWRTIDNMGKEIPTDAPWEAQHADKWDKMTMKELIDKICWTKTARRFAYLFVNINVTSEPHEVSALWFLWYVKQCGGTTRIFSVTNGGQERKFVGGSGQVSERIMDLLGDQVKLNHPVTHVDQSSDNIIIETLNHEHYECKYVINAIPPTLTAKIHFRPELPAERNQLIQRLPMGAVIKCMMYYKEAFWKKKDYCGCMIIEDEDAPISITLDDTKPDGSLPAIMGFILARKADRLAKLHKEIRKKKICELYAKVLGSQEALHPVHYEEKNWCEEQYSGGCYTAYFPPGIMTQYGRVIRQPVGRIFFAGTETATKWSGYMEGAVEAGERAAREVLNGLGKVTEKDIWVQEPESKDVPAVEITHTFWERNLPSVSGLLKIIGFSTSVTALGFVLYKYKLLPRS

human MAO-B = biological target: T2, human MAO-B (Homo sapiens, UniProt P27338); assay: MAO-B inhibition assay; assay type: biochemical; conditions: for SI = IC50 of MAO-A/IC50 of MAO-B: selectivity index
T2 sequence (P27338 1-520): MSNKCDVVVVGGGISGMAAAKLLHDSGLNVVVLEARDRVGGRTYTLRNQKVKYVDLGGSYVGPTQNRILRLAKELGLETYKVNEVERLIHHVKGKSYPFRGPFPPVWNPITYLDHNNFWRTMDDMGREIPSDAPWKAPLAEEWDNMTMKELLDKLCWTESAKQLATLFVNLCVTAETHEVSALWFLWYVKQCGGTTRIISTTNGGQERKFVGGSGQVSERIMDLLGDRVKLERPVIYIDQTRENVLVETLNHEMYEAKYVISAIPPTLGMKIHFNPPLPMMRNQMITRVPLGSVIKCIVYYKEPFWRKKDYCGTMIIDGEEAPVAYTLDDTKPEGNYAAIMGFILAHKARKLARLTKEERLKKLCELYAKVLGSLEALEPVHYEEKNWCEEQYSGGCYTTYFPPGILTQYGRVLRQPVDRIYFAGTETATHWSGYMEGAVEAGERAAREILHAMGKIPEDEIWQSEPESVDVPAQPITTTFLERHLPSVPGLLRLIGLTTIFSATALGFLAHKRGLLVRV

COX-2 = biological target: T3, COX-2 (Homo sapiens, UniProt P35354); assay: biochemical
T3 sequence (P35354 18-604): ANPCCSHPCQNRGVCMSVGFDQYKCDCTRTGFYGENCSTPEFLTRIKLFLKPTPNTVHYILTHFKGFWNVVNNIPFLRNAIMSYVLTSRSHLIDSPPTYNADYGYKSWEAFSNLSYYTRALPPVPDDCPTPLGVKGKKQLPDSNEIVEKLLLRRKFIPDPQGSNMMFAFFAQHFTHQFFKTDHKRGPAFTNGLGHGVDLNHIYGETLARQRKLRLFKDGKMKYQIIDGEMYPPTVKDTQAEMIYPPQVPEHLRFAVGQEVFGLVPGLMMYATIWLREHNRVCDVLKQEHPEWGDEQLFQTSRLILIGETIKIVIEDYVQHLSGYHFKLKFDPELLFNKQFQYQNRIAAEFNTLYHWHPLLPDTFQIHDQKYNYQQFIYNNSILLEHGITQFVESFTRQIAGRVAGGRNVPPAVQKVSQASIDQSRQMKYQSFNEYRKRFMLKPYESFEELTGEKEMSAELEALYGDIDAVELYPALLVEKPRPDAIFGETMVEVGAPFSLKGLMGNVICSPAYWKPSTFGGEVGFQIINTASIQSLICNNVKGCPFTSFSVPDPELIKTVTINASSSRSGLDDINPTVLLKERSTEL

Aβ1–42 peptide = Aβ1–42 peptide (Homo sapiens, UniProt P05067); assay: ThT fluorescence assay for self-mediated Aβ1–42 aggregation; assay type: biochemical; conditions: for inhibition of amyloid beta fibrils: after a 24-hour equimolar administration, ThT fluorescence (Fig. 4)
Sequence of Aβ1–42 peptide (P05067 672-713): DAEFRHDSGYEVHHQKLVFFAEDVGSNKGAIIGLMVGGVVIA

eqBChE = eqBChE (Equus caballus, UniProt P81908); assay: biochemical
Sequence of eqBChE (P81908 whole entry): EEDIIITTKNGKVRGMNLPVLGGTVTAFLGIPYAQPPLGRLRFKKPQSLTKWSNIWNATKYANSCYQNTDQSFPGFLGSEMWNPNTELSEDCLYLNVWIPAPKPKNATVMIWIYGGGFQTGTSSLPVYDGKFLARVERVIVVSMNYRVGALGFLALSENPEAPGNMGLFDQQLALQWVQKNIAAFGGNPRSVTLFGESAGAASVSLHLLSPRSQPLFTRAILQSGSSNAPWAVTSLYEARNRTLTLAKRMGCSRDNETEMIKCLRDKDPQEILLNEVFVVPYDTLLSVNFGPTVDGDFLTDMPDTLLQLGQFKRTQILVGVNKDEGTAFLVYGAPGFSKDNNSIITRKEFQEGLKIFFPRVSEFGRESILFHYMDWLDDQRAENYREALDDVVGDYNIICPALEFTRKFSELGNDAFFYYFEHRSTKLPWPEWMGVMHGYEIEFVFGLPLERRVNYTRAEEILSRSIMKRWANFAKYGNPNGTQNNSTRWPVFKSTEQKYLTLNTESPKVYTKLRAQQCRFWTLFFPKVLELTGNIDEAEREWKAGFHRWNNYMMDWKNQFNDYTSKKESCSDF

eeAChE = eeAChE (Electrophorus electricus, UniProt O42275); assay: Cholinesterase inhibition, Ellman's assay; assay type: biochemical, electric eel; conditions: for SI = IC50 of BChE/IC50 of AChE: selectivity index
Sequence of eeAChE (O42275 24-633): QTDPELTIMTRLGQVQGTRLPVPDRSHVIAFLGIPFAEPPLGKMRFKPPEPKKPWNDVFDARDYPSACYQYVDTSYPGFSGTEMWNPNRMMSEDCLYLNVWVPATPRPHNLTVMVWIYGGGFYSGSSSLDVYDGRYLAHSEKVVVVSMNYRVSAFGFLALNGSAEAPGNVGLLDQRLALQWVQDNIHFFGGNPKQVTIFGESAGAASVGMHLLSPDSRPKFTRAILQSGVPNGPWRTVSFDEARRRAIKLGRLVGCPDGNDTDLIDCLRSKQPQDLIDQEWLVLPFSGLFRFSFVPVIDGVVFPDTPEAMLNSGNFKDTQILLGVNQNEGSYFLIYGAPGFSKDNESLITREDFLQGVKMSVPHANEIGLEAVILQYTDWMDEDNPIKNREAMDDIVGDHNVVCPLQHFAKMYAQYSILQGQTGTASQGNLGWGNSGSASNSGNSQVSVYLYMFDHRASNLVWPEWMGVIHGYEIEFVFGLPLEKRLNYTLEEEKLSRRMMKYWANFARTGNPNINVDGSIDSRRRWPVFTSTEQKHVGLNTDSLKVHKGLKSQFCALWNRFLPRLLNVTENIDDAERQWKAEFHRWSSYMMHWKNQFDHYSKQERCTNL

[1] = ABTS radical cation scavenging assay; conditions: read-out: IC50 (μM) ± SEM ABTS
[2] = DPPH radical scavenging assay; conditions: read-out: IC50 (μM) ± SEM DPPH
SH-SY5Y cells = assay: SH-SY5Y neuroblastoma cell toxicity; assay type: cell-based, human; conditions: for neurotoxicity / cytotoxicity on SH-SY5Y cells: 10–100 μM, 48 h incubation, MTT
HEK-293 cells = assay: Cell viability assay on normal human embryonic HEK-293 cells; assay type: cell-based; conditions: 1, 10, 20, 40 and 100 μM, MTT
[3] = Ferric ion reducing antioxidant power; conditions: μM equivalent to the standard antioxidant ascorbic acid
[4] = In vivo antioxidant potential in mice; conditions: 5 mg kg^−1, SOD, CAT, GSH

Row | Structure (SMILES) | IC50 (human MAO-A) [µM] | IC50 (human MAO-B) [µM] | SI = IC50 of MAO-A/IC50 of MAO-B (human MAO-B) | IC50 (COX-2) [µM] | IC50 (Aβ1–42 peptide) [µM] | inhibition of amyloid beta fibrils (Aβ1–42 peptide) | IC50 (eqBChE) [µM] | IC50 (eeAChE) [µM] | SI = IC50 of BChE/IC50 of AChE (eeAChE) | IC50 [1] [µM] | IC50 [2] [µM] | neurotoxicity / cytotoxicity on SH-SY5Y cells (SH-SY5Y cells) | cytotoxic effect on viability of HEK-293 cells (HEK-293 cells) | FRAP value [3] [µM] | in vivo antioxidant activity [4] | protective ability on SH-SY5Y (SH-SY5Y cells; at all concentrations (10–100 μM))
1 | COc1cc(/C=C/C(=O)Nc2ccc(S(N)(=O)=O)cc2)ccc1OCc1ccccc1 [Compound 25, (E)-3-(4-(Benzyloxy)-3-methoxyphenyl)-N-(4-sulfamoylphenyl)acrylamide] | 28.2 ± 1.09 | 0.066 ± 0.004 | 426 | 0.74 ± 0.13 | 14.1 ± 0.24 | ~50% | 14.1 ± 0.639 | 0.835 ± 0.1 | 17 | 20.7 ± 1.11 | 25 ± 1.16 | did not show any apparent neurotoxicity | not showed in cytotoxic effect | 20.07 |  | 
2 | O=C1O[C@H]([C@@H](O)CO)C(O)=C1O [Ascorbic acid, reference compound] |  |  |  |  |  |  |  |  |  | 6.08 ± 0.21 | 4.89 ± 0.09 |  |  | 90.89 |  | 
3 | O=C(/C=C/c1ccc(-c2ccccc2)cc1)Nc1nc2ccc(O)cc2s1 [Compound 23, (E)-3-([1,1′-Biphenyl]-4-yl)-N-(6-hydroxybenzo[d]thiazol-2-yl)acryl-amide] | 10 ± 0.5 |  | 270 | 14.4 ± 0.28 | 23.1 ± 1.05 | approximately 30% | 15.6 ± 0.901 | 0.071 ± 0.1 | 220 | 12.1 ± 0.14 | 18.19 ± 0.11 | did not show any apparent neurotoxicity | not showed in cytotoxic effect | 53.57 | good to moderate in vivo antioxidant activity | 
4 | COc1cc(/C=C/C(=O)Nc2ccc(S(N)(=O)=O)cc2)ccc1O [Compound 24, (E)-3-(4-Hydroxy-3-methoxyphenyl)-N-(4-sulfamoylphenyl)acryl-amide] | 76.6 ± 1.22 | 0.142 ± 0.011 | 539 |  |  |  | 58.2 ± 1.41 | 10.74 ± 0.1 | 5 | 48.8 ± 1.2 | 21.21 ± 0.15 |  |  | 14.75 |  | 
5 | C#CCN[C@@H]1CCc2ccccc21 [rasigiline, rasagiline, reference compound] |  |  |  |  |  |  |  |  |  |  |  | no cytotoxicity |  |  |  | 
6 | COc1cc(/C=C/C(=O)Nc2nc3ccc(O)cc3s2)ccc1O [Compound 21, (E)-3-(4-Hydroxy-3-methoxyphenyl)-N-(6-hydroxybenzo[d]thiazol-2-yl)acrylamide] | 37.1 ± 1.03 | 0.491 ± 0.024 | 75 |  |  |  | 43.1 ± 1.09 | 29.84 ± 0.1 | 1 | 6.29 ± 0.09 | 14.44 ± 0.13 |  |  | 36.01 |  | 
7 | COc1cc(/C=C/C(=O)CC(=O)/C=C/c2ccc(O)c(OC)c2)ccc1O [Curcumin, reference compound] |  |  |  |  |  | around 60% |  |  |  |  |  |  |  |  |  | 
8 | NS(=O)(=O)c1ccc(NC(=O)c2cc(O)c(O)c(O)c2)cc1 [Compound 29, 3,4,5-Trihydroxy-N-(4-sulfamoylphenyl)benzamide] | 21.4 ± 0.316 | 0.395 ± 0.34 | 54 |  |  |  | 34 ± 1.18 | 3.64 ± 0.1 | 9 | 23.5 ± 1.04 | 10.8 ± 0.63 | did not show any apparent neurotoxicity |  |  | not determined to be active | 
9 | COc1cc(/C=C/C(=O)O)ccc1O [Ferulic acid, trans-4-hydroxy-3-methoxycinnamic acid, reference compound] |  |  |  |  |  |  |  |  |  |  | 69.8 ± 1.48 |  |  |  |  | 
10 | COc1cc(/C=C/C(=O)NC(C)C(N)=O)ccc1O (centres unmarked) [Compound 18, (E)-N-(1-Amino-1-oxopropan-2-yl)-3-(4-hydroxy-3-methoxyphenyl)acrylamide] |  | 10 ± 1.03 |  |  |  |  |  | 58.4 ± 0.09 |  | 45.1 ± 1.77 | 58.3 ± 1.21 |  |  | 29.84 |  | 
11 | Cc1c(C)c2c(c(C)c1O)CCC(C)(C(=O)O)O2 (centres unmarked) [trolox, reference compound] |  |  |  |  |  |  |  |  |  |  |  | no cytotoxicity |  |  | significant antioxidant potential | 
12 | O=C(O)c1cc(O)c(O)c(O)c1 [Gallic acid, reference compound] |  |  |  |  |  |  |  |  |  | 35.2 ± 1.19 | 35.2 ± 1.04 |  |  |  |  | 
13 | CC(NC(=O)c1cc(O)c(O)c(O)c1)C(N)=O (centres unmarked) [Compound 27, N-(1-Amino-1-oxopropan-2-yl)-3,4,5-trihydroxybenzamide] |  | 30.2 ± 1.18 |  |  |  |  |  | 49.03 ± 0.1 |  | 20.4 ± 0.3 | 14.6 ± 0.52 |  |  |  |  | 40–50%
14 | CC(NC(=O)/C=C/c1ccc(-c2ccccc2)cc1)C(N)=O (centres unmarked) [Compound 20, (E)-3-([1,1′-Biphenyl]-4-yl)-N-(1-amino-1-oxopropan-2-yl)acryl-amide] | 10 ± 0.925 | 0.513 ± 0.07 | 19 |  |  |  | 84.1 ± 1.32 | 13.51 ± 0.1 | 6 | 77.1 ± 1.37 |  |  |  | 44.81 |  | 
15 | NS(=O)(=O)c1ccc(NC(=O)/C=C/c2ccc(-c3ccccc3)cc2)cc1 [Compound 26, (E)-3-([1,1′-Biphenyl]-4-yl)-N-(4-sulfamoylphenyl)acrylamide] | 19.9 ± 1.17 | 0.327 ± 0.011 | 60 | 2.19 ± 0.1 | 19.52 ± 0.18 |  | 1.03 ± 0.031 | 0.89 ± 0.1 | 1 | 40.6 ± 1.11 |  |  | not showed in cytotoxic effect | 24.7 |  | 
